A word on the IC50: it is the concentration at which inhibition is half-maximal.

The subject of experiment [1] is OTAapt31 (DNA, aptamer) GATCGGGTGTGGGTGGCGTAAAGGGAGCATC
Kind of experiment: SGI fluorescence quenching. To be noted: 6.25 mM Ca2+; 10 mM Tris-HCl pH 8.4, 0.3x SGI, 20 nM aptamer; tested at 62.5 nM.

The test system of experiment [2] is 5AG4 (DNA, G4) AAAAAGGGTGGGTGGGTGGGTTTTT
Kind of experiment: SGI fluorescence quenching on hemin addition. To be noted: K+ (varied); 10 mM Tris-HCl pH 8.4, 0.2% Tween 20, 0.3x SGI; K+-folded parallel G4.

Experiment [3] has as its system 5AG4-FAM (DNA, G4) AAAAAGGGTGGGTGGGTGGGTTTTT
Kind of experiment: FAM fluorescence quenching on hemin addition. To be noted: K+ (varied); 10 mM Tris-HCl pH 8.4; K+-folded parallel G4.

For experiment [4], the system named is OTAapt31 (DNA, aptamer) GATCGGGTGTGGGTGGCGTAAAGGGAGCATC
The experiment can be described thus: SGI fluorescence enhancement. To be noted: 6.25 mM Ca2+; 10 mM Tris-HCl pH 8.4, 0.3x SGI, 20 nM aptamer; no OTA; terminal duplex stem.

For experiment [5], the system named is G31C (DNA, aptamer) GGATCGGGTGTGGGTGGCGTAAAGGGAGCATCC
The experiment can be described thus: fluorescence quenching titration. To be noted: 6.25 mM Ca2+; 10 mM Tris-HCl pH 8.4, 0.2% Tween 20, 0.3x SGI, 20 nM aptamer, room temperature; apparent.

Experiment [6] deals with OTAapt36 (DNA, aptamer) GATCGGGTGTGGGTGGCGTAAAGGGAGCATCGGACA
The experiment can be described thus: fluorescence quenching titration. To be noted: 6.25 mM Ca2+; 10 mM Tris-HCl pH 8.4, 0.2% Tween 20, 0.3x SGI, 20 nM aptamer, room temperature; apparent.

Experiment [7] has as its system OTAapt31 (DNA, aptamer) GATCGGGTGTGGGTGGCGTAAAGGGAGCATC
The experiment can be described thus: fluorescence quenching titration. To be noted: 6.25 mM Ca2+; 10 mM Tris-HCl pH 8.4, 0.2% Tween 20, 0.3x SGI, 20 nM aptamer, room temperature; apparent.

For experiment [8], the system named is OTAapt31-FAM (DNA, aptamer) GATCGGGTGTGGGTGGCGTAAAGGGAGCATC
Kind of experiment: FAM fluorescence quenching titration. To be noted: 6.25 mM Ca2+; 10 mM Tris-HCl pH 8.4, room temperature; apparent.

Experiment [9] shares this test system. The experiment can be described thus: FAM fluorescence quenching on CV addition. To be noted: 6.25 mM Ca2+; 10 mM Tris-HCl pH 8.4; OTA-folded antiparallel G4.
The subject of experiment [10] is OTAapt31 (DNA, aptamer) GATCGGGTGTGGGTGGCGTAAAGGGAGCATC
Kind of experiment: SGI fluorescence quenching on CV addition. To be noted: 6.25 mM Ca2+; 10 mM Tris-HCl pH 8.4, 0.3x SGI; OTA-folded antiparallel G4.

Regarding `O=C1C=C2C(=CCOC2O)O1` (stereo not shown), the binding result in [1] is “no”.

Turning to `C[C@@H]1Cc2ccc(C(=O)N[C@@H](Cc3ccccc3)C(=O)O)c(O)c2C(=O)O1`, the binding entry in [1] is “no”.

Regarding `C=CC1=C(C)C2=Cc3c(C=C)c(C)c4[n]3[Fe]([Cl])[n]3c(c(C)c(CCC(=O)O)c3=CC3=NC(=C4)C(C)=C3CCC(=O)O)=CC1=N2`, the binding result in experiment [2] and in experiment [3] was “yes” throughout.

For the molecule `CCCN(CCCN(C)C)c1cc(C=C2Sc3ccccc3N2C)c2ccccc2[n+]1-c1ccccc1`, in experiment [4], the binding entry was “yes”.

As to `C[C@@H]1Cc2c(Cl)cc(C(=O)N[C@@H](Cc3ccccc3)C(=O)O)c(O)c2C(=O)O1`, the IC50 in experiment [5] is 17.8 nM; in experiment [6] it was 55.7 nM; in experiment [7], 20.6 nM; in experiment [8] it was 19.8 nM.

Consider `CCCC[C@@H](C)[C@@H](OC(=O)C[C@@H](CC(=O)O)C(=O)O)[C@H](C[C@@H](C)C[C@H](O)CCCC[C@@H](O)C[C@H](O)[C@H](C)N)OC(=O)C[C@@H](CC(=O)O)C(=O)O`, for which, in experiment [1], the binding result is given as “no”.

For `CN(C)c1ccc(C(=C2C=CC(=[N+](C)C)C=C2)c2ccc(N(C)C)cc2)cc1`, the binding entry in experiment [9] and in experiment [10] was “yes” throughout.

With `C[C@H]1CCCC(=O)CCC/C=C/c2cc(O)cc(O)c2C(=O)O1`, the binding result in experiment [1] is on record as “no”.

Source of the values: publication PMC9221108 (2022).
